Earlier results, collected in patent US12165861B2, “Mass spectrometry method for measuring vitamin B6 in body fluid” (Quest Diagnostics Investments Incorporated, priority 2007, dated 2024).

Q: With vitamin B6 as the substance, how does the “time to plasma peak” value (100 mg of vitamin B6, under normal conditions) read?
A: 2 h

Q: And the half-life (100 mg of vitamin B6, under normal conditions, plasma)?
A: 8 h

Q: And the “change in plasma PLP” value (doses of over 25 mg)?
A: little change
